The target in this experiment is T1, 11β-HSD1 (Homo sapiens, UniProt P28845).
T1 construct: detecting cortisol generated from cortisterone by human liver microsomes; from tissue; host or cells: human liver microsomes
In words: In vitro inhibition of 11β-HSD1, HTRF detection of cortisol generated from cortisone by human liver microsomes. In kind it is biochemical. As to conditions: 11β-HSD IC50 (nM), 1 hour at 37° C., pH 6.0, NADPH 200 μM, cortisone 80 nM, inhibition relative to carbenoxolone signal. Here is the method: Cortisol generated in the reaction is then detected with a competitive immunoassay, involving two HTRF conjugates: cortisol linked to XL665 and anti-cortisol antibody labeled with Europium cryptate. The incubation period for detection reaction was typically 2 hours. […] The ratio of the two emission signals is then calculated (Em665*10000/Em615). […] Each assay also contained a calibration curve with cortisol to transform the fluorescent data into cortisol concentrations. Percent inhibition of each compound was determined relative to the carbenoxolone signal and IC50 curves were generated.

The IC50 is the point on the concentration scale where inhibition reaches its midpoint. Read a high IC50 as lower potency.

T1 sequence (P28845 whole entry): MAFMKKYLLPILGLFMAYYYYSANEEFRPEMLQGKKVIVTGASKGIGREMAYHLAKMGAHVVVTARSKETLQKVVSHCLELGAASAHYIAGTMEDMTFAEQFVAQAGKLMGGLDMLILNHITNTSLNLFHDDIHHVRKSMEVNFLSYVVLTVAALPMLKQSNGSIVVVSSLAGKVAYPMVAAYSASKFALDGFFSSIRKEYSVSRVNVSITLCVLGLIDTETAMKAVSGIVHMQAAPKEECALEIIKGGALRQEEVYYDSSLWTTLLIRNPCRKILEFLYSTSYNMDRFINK

`Cc1ccc(C(=O)N2CC[C@@]3(C)c4cccc(O)c4C[C@@H]2C3(C)C)cc1` [Example 12, [(2R,6S)-10-Hydroxy-6,11,11-trimethyl-1,2,5,6-tetrahydro-4H-2,6-methano-benzo[d]azocin-3-yl]-p-tolyl-methanone] displayed an IC50 of 792 nM. Then `CC1(C)[C@H]2Cc3c(O)cccc3[C@]1(C)CCN2C(=O)c1ccc(C#N)cc1` [Example 13], with 1610 nM. With `COc1ccc(C(=O)N2CC[C@@]3(C)c4cccc(O)c4C[C@@H]2C3(C)C)cc1` [Example 14, [(2R,6S)-10-Hydroxy-6,11,11-trimethyl-1,2,5,6-tetrahydro-4H-2,6-methano-benzo[d]azocin-3-yl]-(4-methoxy-phenyl)-methanone], the IC50 was determined as 734 nM. In turn, `CC(=O)Nc1ccc(C(=O)N2CC[C@@]3(C)c4cccc(O)c4C[C@@H]2C3(C)C)cc1` [Example 15, N-{4-[(2R,6S)-10-Hydroxy-6,11,11-trimethyl-1,2,5,6-tetrahydro-4H-2,6-methano-benzo[d]azocine-3-carbonyl]-phenyl}-acetamide] had an IC50 of 354 nM. The compound `CC(O)(c1ccc(C(=O)N2CC[C@@]3(C)c4cccc(O)c4C[C@@H]2C3(C)C)cc1)C(F)(F)F` (stereo partly drawn) [Example 16, [(2R,6S)-10-Hydroxy-6,11,11-trimethyl-1,2,5,6-tetrahydro-4H-2,6-methano-benzo[d]azocin-3-yl]-[4-(2,2,2-trifluoro-1-hydroxy-1-methyl-ethyl)-phenyl]-methanone] registered a half-maximal inhibitory concentration (IC50) of 360 nM. Compound `Cc1nc2ccc(C(=O)N3CC[C@@]4(C)c5cccc(O)c5C[C@@H]3C4(C)C)cc2[nH]1` [Example 17, [(2R,6S)-10-Hydroxy-6,11,11-trimethyl-1,2,5,6-tetrahydro-4H-2,6-methano-benzo[d]azocin-3-yl]-(2-methyl-3H-benzoimidazol-5-yl)-methanone] came in with a half-maximal inhibitory concentration (IC50) of 1380 nM.

The compound `CC1(C)[C@H]2Cc3c(O)cccc3[C@]1(C)CCN2C(=O)c1cccc2[nH]cnc12` [Example 18, (1H-Benzoimidazol-4-yl)-[(2R,6S)-10-hydroxy-6,11,11-trimethyl-1,2,5,6-tetrahydro-4H-2,6-methano-benzo[d]azocin-3-yl]-methanone] showed an IC50 of 3680 nM. The compound `Cn1cnc2cc(C(=O)N3CC[C@@]4(C)c5cccc(O)c5C[C@@H]3C4(C)C)ccc21` [Example 19, [(2R,6S)-10-Hydroxy-6,11,11-trimethyl-1,2,5,6-tetrahydro-4H-2,6-methano-benzo[d]azocin-3-yl]-(1-methyl-1H-benzoimidazol-5-yl)-methanone] returned a concentration for half-maximal inhibition (IC50) of 658 nM. Then `CC1(C)[C@H]2Cc3c(O)cccc3[C@]1(C)CCN2C(=O)c1ccc2c(c1)OCCO2` [Example 20, (2,3-Dihydro-benzo[1,4]dioxin-6-yl)-[(2R,6S)-10-hydroxy-6,11,11-trimethyl-1,2,5,6-tetrahydro-4H-2,6-methano-benzo[d]azocin-3-yl]-methanone], with 254 nM. As to `CC1(C)[C@H]2Cc3c(O)cccc3[C@]1(C)CCN2C(=O)c1ccc2nn[nH]c2c1` [Example 21, (3H-Benzotriazol-5-yl)-[(2R,6S)-10-hydroxy-6,11,11-trimethyl-1,2,5,6-tetrahydro-4H-2,6-methano-benzo[d]azocin-3-yl]-methanone], it took 669 nM to reach half-maximal inhibition (IC50). The compound `CC1(C)[C@H]2Cc3c(O)cccc3[C@]1(C)CCN2C(=O)c1ccc(CN2CCCCC2)cc1` [Example 22, [(2R,6S)-10-Hydroxy-6,11,11-trimethyl-1,2,5,6-tetrahydro-4H-2,6-methano-benzo[d]azocin-3-yl]-(4-piperidin-1-ylmethyl-phenyl)-methanone] returned an IC50 of 5040 nM. Then `CC1(C)[C@H]2Cc3c(O)cccc3[C@]1(C)CCN2C(=O)c1ccc(CN2CCOCC2)cc1` [Example 24, [(2R,6S)-10-Hydroxy-6,11,11-trimethyl-1,2,5,6-tetrahydro-4H-2,6-methano-benzo[d]azocin-3-yl]-(4-morpholin-4-ylmethyl-phenyl)-methanone], with 134 nM; and `CC1(C)[C@H]2Cc3c(O)cccc3[C@]1(C)CCN2C(=O)c1ccc(N2CCOCC2)cc1` [Example 25, [(2R,6S)-10-Hydroxy-6,11,11-trimethyl-1,2,5,6-tetrahydro-4H-2,6-methano-benzo[d]azocin-3-yl]-(4-morpholin-4-yl-phenyl)-methanone], with 686 nM. Next, `CC1(C)[C@H]2Cc3c(O)cccc3[C@]1(C)CCN2C(=O)c1ccc(N2CCNCC2)cc1` [Example 26, [(2R,6S)-10-Hydroxy-6,11,11-trimethyl-1,2,5,6-tetrahydro-4H-2,6-methano-benzo[d]azocin-3-yl]-(4-piperazin-1-yl-phenyl)-methanone]: 2890 nM; `CC(=O)Nc1ccc(C(=O)N2CC[C@@]3(C)c4cccc(O)c4C[C@@H]2C3(C)C)cc1F` [Example 27, N-{2-Fluoro-4-[(2R,6S)-10-hydroxy-6,11,11-trimethyl-1,2,5,6-tetrahydro-4H-2,6-methano-benzo[d]azocine-3-carbonyl]-phenyl}-acetamide]: 629 nM; `CC(=O)c1ccc(C(=O)N2CC[C@@]3(C)c4cccc(O)c4C[C@@H]2C3(C)C)cc1` [Example 28, 1-{4-[(2R,6S)-10-Hydroxy-6,11,11-trimethyl-1,2,5,6-tetrahydro-4H-2,6-methano-benzo[d]azocine-3-carbonyl]-phenyl}-ethanone]: 3680 nM. `Cn1c(=O)[nH]c2cc(C(=O)N3CC[C@@]4(C)c5cccc(O)c5C[C@@H]3C4(C)C)ccc21` [Example 29, 5-[(2R,6S)-10-Hydroxy-6,11,11-trimethyl-1,2,5,6-tetrahydro-4H-2,6-methano-benzo[d]azocine-3-carbonyl]-1-methyl-1,3-dihydro-benzoimidazol-2-one] registered an IC50 of 1730 nM. Then `COC(=O)c1cccc(C(=O)N2CC[C@@]3(C)c4cccc(O)c4C[C@@H]2C3(C)C)c1` [Example 30, 3-[(2R,6S)-10-Hydroxy-6,11,11-trimethyl-1,2,5,6-tetrahydro-4H-2,6-methano-benzo[d]azocine-3-carbonyl]-benzoic acid methyl ester], with 1400 nM; and `CC1(C)[C@H]2Cc3c(O)cccc3[C@]1(C)CCN2C(=O)c1ccc2cc[nH]c2c1` [Example 31, [(2R,6S)-10-Hydroxy-6,11,11-trimethyl-1,2,5,6-tetrahydro-4H-2,6-methano-benzo[d]azocin-3-yl]-(1H-indol-6-yl)-methanone], with 88 nM; and `C#Cc1cc(C(=O)N2CC[C@@]3(C)c4cccc(O)c4C[C@@H]2C3(C)C)ccc1C(=O)N1CCCC1` [Example 32, [3-Ethynyl-4-(pyrrolidine-1-carbonyl)-phenyl]-[(2R,6S)-10-hydroxy-6,11,11-trimethyl-1,2,5,6-tetrahydro-4H-2,6-methano-benzo[d]azocin-3-yl]-methanone], with 915 nM. The compound `CC1(C)[C@H]2Cc3c(O)cccc3[C@]1(C)CCN2C(=O)c1ccc2c(c1)NC(=O)C2` [Example 33, 6-[(2R,6S)-10-Hydroxy-6,11,11-trimethyl 1,2,5,6-tetrahydro-4H-2,6-methano-benzo[d]azocine-3-carbonyl]-1,3-dihydro-indol-2-one] returned an IC50 of 3490 nM. Then `Cc1nc2cc(C(=O)N3CC[C@@]4(C)c5cccc(O)c5C[C@@H]3C4(C)C)ccc2c(=O)[nH]1` [Example 34, 7-[(2R,6S)-10-Hydroxy-6,11,11-trimethyl-1,2,5,6-tetrahydro-4H-2,6-methano-benzo[d]azocine-3-carbonyl]-2-methyl-3H-quinazolin-4-one], with 3880 nM; and `Cc1cc(C(=O)N2CC[C@@]3(C)c4cccc(O)c4C[C@@H]2C3(C)C)ccc1C(=O)N1CCCC1` [Example 35, [(2R,6S)-10-Hydroxy-6,11,11-trimethyl-1,2,5,6-tetrahydro-4H-2,6-methano-benzo[d]azocin-3-yl]-[3-methyl-4-(pyrrolidine-1-carbonyl)-phenyl]-methanone], with 672 nM; and `CNC(=O)c1ccc(C(=O)N2CC[C@@]3(C)c4cccc(O)c4C[C@@H]2C3(C)C)cc1` [Example 36, 4-[(2R,6S)-10-Hydroxy-6,11,11-trimethyl-1,2,5,6-tetrahydro-4H-2,6-methano-benzo[d]azocine-3-carbonyl]-N-methyl-benzamide], with 3660 nM. As to `CN(C)C(=O)c1ccc(C(=O)N2CC[C@@]3(C)c4cccc(O)c4C[C@@H]2C3(C)C)cc1` [Example 37, 4-[(2R,6S)-10-Hydroxy-6,11,11-trimethyl-1,2,5,6-tetrahydro-4H-2,6-methano-benzo[d]azocine-3-carbonyl]-N,N-dimethyl-benzamide], the IC50 was determined as 998 nM.

`CN(C)C(=O)c1cccc(C(=O)N2CC[C@@]3(C)c4cccc(O)c4C[C@@H]2C3(C)C)c1` [Example 38, 3-[(2R,6S)-10-Hydroxy-6,11,11-trimethyl-1,2,5,6-tetrahydro-4H-2,6-methano-benzo[d]azocine-3-carbonyl]-N,N-dimethyl-benzamide]: inhibition was half-maximal at 1440 nM (IC50). Next, `CNC(=O)c1cccc(C(=O)N2CC[C@@]3(C)c4cccc(O)c4C[C@@H]2C3(C)C)c1` [Example 39, 3-[(2R,6S)-10-Hydroxy-6,11,11-trimethyl-1,2,5,6-tetrahydro-4H-2,6-methano-benzo[d]azocine-3-carbonyl]-N-methyl-benzamide]: 1590 nM; `COC[C@H]1CCCN1C(=O)c1cccc(C(=O)N2CC[C@@]3(C)c4cccc(O)c4C[C@@H]2C3(C)C)c1` [Example 40, [(2R,6S)-10-Hydroxy-6,11,11-trimethyl-1,2,5,6-tetrahydro-4H-2,6-methano-benzo[d]azocin-3-yl]-[3-((R)-2-methoxymethyl-pyrrolidine-1-carbonyl)-phenyl]-methanone]: 542 nM.
